Source: US8697366B2, “Anti-cancer drug screening method using RORα” (Seoul National University Industry Foundation, priority 2009, dated 2014)
Entries after “also recorded” stand apart in the source; their conditions may differ.

Key:
Assay type in all cases: cell-based
[1] = tested on: binding of RORα to β-catenin; test: Coimmunoprecipitation of RORα with β-catenin in HCT116 cells
Description: (§1) (A) The specificity of the antibody raised against phosphorylated RORαS35 peptide (SEQ ID NO:18) was assessed by dot blot analysis. (B) Treatment of TPA increased phophorylated RORα on S35 site as assessed by immunoprecipitation with anti-phospho-RORαS35 antibody. […] (D) Treatment of Go6976, a PKCα inhibitor, abolished TPA-dependent phosphorylation of RORα as assessed by immonoblotting with anti-phospho-RORαS35 antibody. (E) HCT116 cells were transfected with Flag-RORα WT, S35D, or S35A, and the cell extracts were immunoprecipitated with anti-Flag antibody followed by immunoblotting against anti-β-catenin antibody. (F) Coimmunoprecipitation assay of β-catenin with either RORαWT or S35A in HCT116 cells after treatment with TPA in the absence or presence of Go6976. (G) ChIP analysis on the cyclin D1 promoter after transfection with Flag-RORαWT, S35A, or S35D in HCT116 cells. (H) ChIP analysis on the cyclin D1 promoter in HCT116 cells after TPA treatment for indicated time. (I) ChIP assay was performed on the cyclin D1 promoter in the absence or presence of siRNA against PKCα with treatment of TPA for 90 min. (J) Real-time quantitative RT-PCR analysis of the cyclin D1 transcript in HCT116 cells in the presence of TPA for indicated time. (K) Knockdown effect of siRNA against RORα or PKCα was assessed in the expression of the cyclin D1 transcript in HCT116 cells.

cyclin D1 transcript = test: Real-time quantitative RT-PCR of the cyclin D1 transcript in HCT116 cells
Description: The abundance of mRNA was detected by an ABI prism 7300 system with SYBR Green (molecular probes). Primer pairs were designed to amplify 90-150 bp mRNA specific fragments, and confirmed to be unique products by melting curve analysis. The PCR conditions were 95° C. (5 min) and 40 cycles of 95° C. (30 s), 57° C. (30 s), and 72° C. (30 s).
The quantity of mRNA was calculated using the ΔΔCt method and normalized by using primers to detect β-actin or HPRT. All reactions were performed in triplicates.

cyclin D1 promoter = test: ChIP assay on the cyclin D1 promoter in HCT116 cells
Description: as §1
(B) Cyclin D1 transcript was measured after introducing siRNAs against RORα or PKCα in the presence of Wnt5a in HCT116 cells. (C) Real-time quantitative RTPCR analysis of the cyclin D1 transcript in HCT116 cells after introducing RORα, S35A, or S35D in the presence of Wnt5a. (D) […] on the cyclin D1 promoter with treatment of either TPA or Wnt5a in HCT116 cells. Occupancy of the cyclin D1 promoter by phosphorylated RORα, β-catenin, RNA polymerase II, H3K9me2, H3K4me2, CBP, pCAF, p300, or SMRT was indicated. (E) Transwell cell migration assay for RORα, RORαS35A, or RORαS35D-expressing HCT116 cells with treatment of Wnt5a. Values are represented as mean±s.d. for three independent experiments. (F) The anchorage-independent growth of HCT116 cells expressing RORα, RORαS35A, or RORαS35D in soft agar. Values are expressed as mean±SEM for two experiments in 6 place wells. Colonies were counted in 10 different fields and total colony number/well was calculated. Representative image is shown for each group.
The ChIP, two-step ChIP, and shRNA-coupled ChIP assays were conducted as previously described (Baek et al., 2002; Kim et al., 2005).

RORα = test: Phosphorylation of RORα in HCT116 cells (immunoprecipitation / immunoblot with anti-phospho-Ser or anti-phospho-RORαS35 antibody)
Description: (A) Schematic representation of RORα showing the location of the N-terminal domain (NTD), the DNA-binding domain (DBD), the hinge region, the ligand-binding domain (LBD), and the AF-2 domain. […] HEK293 cells were cotransfected with plasmids expressing each His-tagged RORα deletion construct and β-catenin. Whole cell extracts (left panel) and Ni^+-NTA-agarose pulldown materials (right panel) were analyzed by immunoblotting against anti-β-catenin IgG or anti-Xpress IgG. (C) Illustration of the structure of deletion fragments of RORα(SEQ ID NO:17). (D) Interaction of each RORα deletion construct with HisMax-β-catenin was assessed by Ni^+-NTA-agarose pulldown assay. […] The phosphorylated peptide samples were analyzed by LC-MS analysis. […] Immunoprecipitation assay was conducted with anti-Flag antibody, and the phosphorylated RORα was detected by immunoblot analysis with anti-phospho-Ser antibody. […] The reaction samples were subjected to 12% SDSPAGE, and phosphorylated RORα was detected by autoradiography. […] The fluorescence-conjugated secondary antibody was visualized using fluorescence microscopy, and nuclear staining with DAPI was shown.
(A) The specificity of the antibody raised against phosphorylated RORαS35 peptide (SEQ ID NO:18) was assessed by dot blot analysis. (B) Treatment of TPA increased phophorylated RORα on S35 site as assessed by immunoprecipitation with anti-phospho-RORαS35 antibody. […]

| Structure (SMILES) | binding of RORα to β-catenin ([1]; TPA treatment) | cyclin D1 transcript (cyclin D1 transcript) | RNA polymerase II recruitment on the cyclin D1 promoter (cyclin D1 promoter) | methylation of histone H3K9 on the cyclin D1 promoter (cyclin D1 promoter) | recruitment of CBP, p300, and pCAF coactivators to the cyclin D1 promoter (cyclin D1 promoter) | recruitment of β-catenin on the cyclin D1 promoter (cyclin D1 promoter) | recruitment of phosphorylated RORα on the cyclin D1 promoter (cyclin D1 promoter; anti-phospho-RORαS35 IgG) | phosphorylation of RORα (RORα; HCT116 cells, treatment alone) | TPA-induced increased binding of RORα to β-catenin ([1]; TPA plus Go6976) | TPA-induced phosphorylation of RORα (RORα; in presence of TPA, anti-phospho-RORαS35 immunoblot) |
| --- | --- | --- | --- | --- | --- | --- | --- | --- | --- | --- |
| CCCCCCCCCCCCCC(=O)O[C@@H]1[C@@H](C)[C@@]2(O)[C@@H](C=C(CO)C[C@]3(O)C(=O)C(C)=C[C@@H]23)[C@@H]2C(C)(C)[C@]12OC(C)=O [TPA, 12-O-tetradecanoylphorbol-13acetate] | significantly increased | downregulation | concomitant decrease; also recorded: decreased | increased methylation | significantly decreased | not altered | increased the recruitment | increased phosphorylation |  |  |
| Cn1c2ccccc2c2c3c(c4c5ccccc5n(CCC#N)c4c21)CNC3=O [Go6976] |  |  |  |  |  |  |  |  | almost completely abolished | abolished |
